Results: ChEMBL document CHEMBL1152391, “Development of a selective and potent radioactive ligand for histamine H(3) receptors: A compound potentially useful for receptor occupancy studies” (Bioorg Med Chem Lett, 2009)
The source made the active and inactive calls. The calls are words filed in the database; no cut-off is given here.

How the values were obtained:
Histamine H3 receptor [1] = biological target: T1, Histamine H3 receptor (Mus musculus, UniProt P58406); assay: Inverse agonist activity at mouse histamine H3 receptor overexpressed in HEK293 cells by [35S]GTPgammaS binding assay; format: functional, cell-based
T1 sequence (P58406 whole entry): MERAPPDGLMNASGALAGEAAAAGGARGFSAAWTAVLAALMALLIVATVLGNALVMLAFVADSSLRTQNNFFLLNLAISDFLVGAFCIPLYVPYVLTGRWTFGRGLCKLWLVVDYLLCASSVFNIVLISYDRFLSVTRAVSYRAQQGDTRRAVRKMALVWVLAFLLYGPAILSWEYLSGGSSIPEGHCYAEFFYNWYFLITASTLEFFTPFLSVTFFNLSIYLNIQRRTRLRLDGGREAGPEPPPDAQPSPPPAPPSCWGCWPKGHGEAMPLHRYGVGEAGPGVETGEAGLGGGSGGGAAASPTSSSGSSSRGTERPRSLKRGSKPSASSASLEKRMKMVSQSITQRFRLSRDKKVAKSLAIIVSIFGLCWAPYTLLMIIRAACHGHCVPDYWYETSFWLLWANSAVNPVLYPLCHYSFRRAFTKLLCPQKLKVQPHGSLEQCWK

Histamine H3 receptor [2] = biological target: T1, Histamine H3 receptor; assay: biochemical
Histamine H3 receptor [3] = biological target: T1, Histamine H3 receptor; assay: Binding affinity to histamine H3 receptor in wild type mouse brain membrane; format: cell membranes
[4] = Lipophilicity, log d at pH 7.4; format: physicochemical; settings: buffer
Histamine H3 receptor [5] = biological target: T1, Histamine H3 receptor; assay: Binding affinity to mouse histamine H3 receptor overexpressed in HEK293 cells; format: cell-based
[6] = biological target: Histamine H3 receptor (Mus musculus) (UniProt P58406); assay: Inverse agonist activity at mouse histamine H3 receptor overexpressed in HEK293 cells by [35S]GTPgammaS binding assay relative to basal level; format: functional, cell-based; settings: concentration not given here
Chain of Histamine H3 receptor (Mus musculus) (P58406 whole entry): as above

Histamine H3 receptor [7] = biological target: Histamine H3 receptor (Rattus norvegicus, UniProt Q9QYN8); assay: Binding affinity to rat histamine H3 receptor by competitive binding assay
Chain of Histamine H3 receptor (Rattus norvegicus, UniProt Q9QYN8) (Q9QYN8 whole entry): as the sequence (P58406 whole entry) above, with A15T, T286A, G290A, H387R, V389I counted along it

[8] = Drug level in Sprague-Dawley rat cerebrospinal fluid at 10 mg/kg, po after 2 hrs; format: ADME, organism-based; parameters: dose 10 mg/kg, route oral; settings: read-out: Drug uptake
[9] = Plasma concentration in Sprague-Dawley rat at 10 mg/kg, po after 2 hrs; format: ADME, organism-based; parameters: dose 10 mg/kg, route oral
Brain [10] = assay: Drug level in Sprague-Dawley rat brain at 10 mg/kg, po after 2 hrs; format: ADME, organism-based; parameters: dose 10 mg/kg, route oral; settings: in vivo
Brain [11] = assay: Ex vivo binding affinity to histamine H3 receptor in wild type mouse coronal brain sections at 3 nM after 30 mins by receptor occupancy assay; format: functional, tissue-based; settings: tested as the 3H-labelled form
Histamine H4 receptor = Histamine H4 receptor (Homo sapiens, UniProt Q9H3N8); assay: Inhibition of histamine H4 receptor
Chain of Histamine H4 receptor (Q9H3N8 whole entry): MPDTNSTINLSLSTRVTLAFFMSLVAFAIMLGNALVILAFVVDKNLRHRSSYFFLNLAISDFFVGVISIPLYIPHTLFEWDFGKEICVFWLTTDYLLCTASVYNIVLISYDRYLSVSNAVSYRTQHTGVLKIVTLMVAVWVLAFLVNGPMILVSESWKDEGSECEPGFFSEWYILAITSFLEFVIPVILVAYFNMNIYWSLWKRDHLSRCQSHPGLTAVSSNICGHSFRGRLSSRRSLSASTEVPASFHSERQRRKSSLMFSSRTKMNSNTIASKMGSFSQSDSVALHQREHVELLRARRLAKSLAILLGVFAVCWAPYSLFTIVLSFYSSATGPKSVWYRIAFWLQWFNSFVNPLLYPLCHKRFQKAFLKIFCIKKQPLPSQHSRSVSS

Histamine H2 receptor = Histamine H2 receptor (Homo sapiens, UniProt P25021); assay: Inhibition of histamine H2 receptor
Chain of Histamine H2 receptor (P25021 whole entry): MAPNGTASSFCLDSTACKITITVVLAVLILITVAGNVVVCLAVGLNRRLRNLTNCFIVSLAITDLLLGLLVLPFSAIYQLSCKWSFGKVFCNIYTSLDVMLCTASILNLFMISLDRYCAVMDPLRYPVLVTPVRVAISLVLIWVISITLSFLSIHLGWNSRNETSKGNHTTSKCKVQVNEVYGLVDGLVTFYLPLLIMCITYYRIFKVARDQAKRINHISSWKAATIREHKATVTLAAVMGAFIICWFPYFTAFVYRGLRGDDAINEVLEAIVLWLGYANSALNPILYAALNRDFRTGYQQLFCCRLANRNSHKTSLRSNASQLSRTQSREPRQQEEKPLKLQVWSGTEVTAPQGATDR

Histamine H1 receptor = Histamine H1 receptor (Homo sapiens, UniProt P35367); assay: Inhibition of histamine H1 receptor
Chain of Histamine H1 receptor (P35367 whole entry): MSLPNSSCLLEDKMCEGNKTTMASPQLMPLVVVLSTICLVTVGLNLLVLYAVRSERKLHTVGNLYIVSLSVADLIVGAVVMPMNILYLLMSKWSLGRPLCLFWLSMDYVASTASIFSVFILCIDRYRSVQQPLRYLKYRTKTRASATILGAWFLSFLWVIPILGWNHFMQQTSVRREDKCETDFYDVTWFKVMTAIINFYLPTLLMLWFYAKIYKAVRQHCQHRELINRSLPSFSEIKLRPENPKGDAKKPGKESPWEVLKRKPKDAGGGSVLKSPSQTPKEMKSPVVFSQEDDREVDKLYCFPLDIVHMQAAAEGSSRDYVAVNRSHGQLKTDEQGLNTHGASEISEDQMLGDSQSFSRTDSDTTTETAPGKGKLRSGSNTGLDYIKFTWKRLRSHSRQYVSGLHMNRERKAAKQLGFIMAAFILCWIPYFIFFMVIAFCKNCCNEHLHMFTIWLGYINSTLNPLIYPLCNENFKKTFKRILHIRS

Compound	EC50 (Histamine H3 receptor [1]) [nM]	Ki (Histamine H3 receptor [2]) [nM]	inhibition [6] [%]	further results
NC(=NCc1ccc(Cl)cc1)SCCCc1cnc[nH]1 [CLOBENPROPIT]	1.7			
NCCc1c[nH]cn1 [HISTAMINE]		68		
CNCCc1c[nH]cn1		19		
N=C(N)SCCc1cnc[nH]1 [IMETIT]		2		
[3H]C([3H])([3H])n1c(-c2ccc(OCCCN3CCCC3)cc2)nc2ccccc2c1=O				Kd (Histamine H3 receptor [3]): 3.1 nM; logD [4]: 1.2; Kd (Histamine H3 receptor [5]): 2.6 nM
N=C(NCc1ccc(Cl)cc1)SCCCc1c[nH]cn1			14	
Cn1c(-c2ccc(OCCCN3CCCC3)cc2)nc2ccccc2c1=O	9.6	2.4	24	Ki (Histamine H3 receptor [7]): 12 nM; concentration at 2 h [8]: 134 nM; concentration at 2 h [9]: 1360 nM; Drug uptake (Brain [10]): 2.22 nmol/g; Activity (Brain [11]): Active; IC50 (Histamine H4 receptor): > 10000 nM; IC50 (Histamine H2 receptor): > 10000 nM; IC50 (Histamine H1 receptor): > 10000 nM
S=C(NC1CCCCC1)N1CCC(c2cnc[nH]2)CC1 [THIOPERAMIDE]	11	4.8	27	
